Paper PMC8922279, “Identification of β-Lactams Active against Mycobacterium tuberculosis by a Consortium of Pharmaceutical Companies and Academic Institutions” (ACS Infectious Diseases, 2022)

Columns and labels:
[1] = In vitro plasma stability, beagle dog plasma; details: for Plasma stability % Remaining, Dog: 2 μM, 37 °C, time point 120 min
[2] = In vitro plasma stability, CD-1 mouse plasma; details: 37 °C, time point 120 min; for Plasma stability % Remaining, Mouse: 2 μM
[3] = Stability in simulated gastric fluid (SGF); details: for SGF Stability, % remaining, 1h / SGF Stability, % remaining, 24h: 10 μM, pH 1.2, room temperature
Caco-2 cells = assay: Caco-2 permeability / efflux transporter substrate; details: for Caco-2 Mean Papp A to B / Caco-2 Mean Papp B to A: 3 μM, pH 7.4, 120 min
[4] = Caco-2 permeability / efflux transporter substrate; details: human
[5] = In vitro plasma stability, SD rat plasma; details: 37 °C, time point 120 min; for Plasma stability % Remaining, Rat: 2 μM
[6] = In vitro plasma stability, human plasma; details: 37 °C, time point 120 min; for Plasma stability % Remaining, Human: 2 μM
[7] = Stability in fasted simulated intestinal fluid (FaSSIF); details: pH 6.5, room temperature; for FaSSIF Stability, % remaining, 6h / FaSSIF Stability, % remaining, 24h: 10 μM
[8] = In vitro plasma stability, cynomolgus monkey plasma; details: for Plasma stability % Remaining, Monkey: 2 μM, 37 °C, time point 120 min
E. coli = assay: Microbial spectrum, E. coli; format: cell-based, Escherichia coli; details: clavulanate 4 μg/mL; Table S4
P. aeruginosa = assay: Microbial spectrum, P. aeruginosa; format: cell-based, Pseudomonas aeruginosa; details: clavulanate 4 μg/mL; Table S4
Mtb H37Rv [9] = assay: MIC90 against replicating (R) Mtb H37Rv, with or without clavulanate; format: cell-based, Mycobacterium tuberculosis; details: Table S4; for Mtb H37Rv R + CLAV (MIC90): clavulanate 4 μg/mL; for Mtb H37Rv R (MIC90): no clavulanate
C. albicans = assay: Microbial spectrum, C. albicans; format: cell-based, Candida albicans; details: no clavulanate; Table S4
Mtb H37Rv [10] = assay: MIC90 against nonreplicating (NR, 4-stress) Mtb H37Rv, with or without clavulanate; format: cell-based, Mycobacterium tuberculosis; details: 4-stress nonreplicating, Table S4; for Mtb H37Rv NR + CLAV (MIC90): clavulanate 4 μg/mL; for Mtb H37Rv NR (MIC90): no clavulanate
S. aureus = assay: Microbial spectrum, S. aureus; format: cell-based, Staphylococcus aureus; details: clavulanate 4 μg/mL; Table S4
plasma proteins [11] = assay: Plasma protein binding (equilibrium dialysis), CD-1 mouse; details: 2 μM
plasma proteins [12] = assay: Plasma protein binding (equilibrium dialysis), beagle dog; details: 2 μM
plasma proteins [13] = assay: Plasma protein binding (equilibrium dialysis), human; details: 2 μM
plasma proteins [14] = assay: Plasma protein binding (equilibrium dialysis), SD rat; details: 2 μM
plasma proteins [15] = assay: Plasma protein binding (equilibrium dialysis), cynomolgus monkey; details: 2 μM
[16] = simulated gastric fluid (SGF), pH 1.2

SMILES	Caco-2 Rank Papp (Caco-2 cells; Caco-2)	E.coli R + CLAV (MIC90) (E. coli)	Plasma stability % Remaining, Dog [1]	P.aeruginosa R + CLAV (MIC90) (P. aeruginosa)	Plasma stability % Remaining, Mouse [2]	Mtb H37Rv R + CLAV (MIC90) (Mtb H37Rv [9])	Mtb H37Rv R (MIC90) (Mtb H37Rv [9])	SGF Stability, % remaining, 1h [3]	SGF Stability, % remaining, 24h [3]	C.albicans R (MIC90) (C. albicans)	Caco-2 Mean Papp A to B (Caco-2 cells)	Caco-2 Mean Papp B to A (Caco-2 cells)	Caco-2 Mean Recovery % A to B (Caco-2 cells; Caco-2)	Caco-2 Mean Recovery % B to A (Caco-2 cells; Caco-2)	Plasma stability % Remaining, Rat [5]	FaSSIF Stability, % remaining, 6h [7]	FaSSIF Stability, % remaining, 24h [7]	Mtb H37Rv NR + CLAV (MIC90) (Mtb H37Rv [10])	Mtb H37Rv NR (MIC90) (Mtb H37Rv [10])	S.aureus R + CLAV (MIC90) (S. aureus)	other results
C[C@@H](O)[C@H]1C(=O)N2C(C(=O)O)=C(S[C@@H]3CN[C@H](C(=O)Nc4cccc(C(=O)O)c4)C3)[C@H](C)[C@H]12 [Ertapenem, reference compound]	Low																				remaining at 2 h, 2 μM ([1]; beagle, dog, plasma): 70.7%; remaining at 2 h, 2 μM ([2]; male, CD-1, mouse, plasma, Plasma stability % Remaining, Mouse): 74.2%; remaining at 1 h, 10 μM [3, 16]: 0%; remaining at 24 h, 10 μM [3, 16]: 0%; Papp A→B at 120 min, 3 μM ([4]; Caco-2, pH 7.4): < 0.23 ×10⁻⁶ cm/s; Papp B→A at 120 min, 3 μM ([4]; Caco-2, pH 7.4): < 0.21 ×10⁻⁶ cm/s; recovery at 120 min, 3 μM ([4]; Caco-2, pH 7.4, Caco-2 Mean Recovery % A to B): < 116%; recovery at 120 min, 3 μM ([4]; Caco-2, pH 7.4, Caco-2 Mean Recovery % B to A): < 112%; remaining at 2 h, 2 μM ([5]; SD, rat, plasma, Plasma stability % Remaining): 69.1%; remaining at 2 h, 2 μM ([6]; human, plasma, Plasma stability % Remaining): 77.5%; remaining at 6 h, 10 μM ([7]; fasted simulated intestinal fluid (FaSSIF), pH 6.5, FaSSIF Stability, % remaining, 6h): 86.8%; remaining at 24 h, 10 μM ([7]; fasted simulated intestinal fluid (FaSSIF), pH 6.5, FaSSIF Stability, % remaining, 24h): 85.8%; remaining at 2 h, 2 μM ([8]; monkey, plasma): 115%
CC=CC(=O)OCC1=C(C(=O)O)N2C(=O)[C@@H](NC(=O)C(=NO)c3cccs3)[C@H]2SC1 [TBBL-0000058]	Low	41.8 µM	81.2%	> 100 µM	67.6%	1.1 µM	8.7 µM	94.94%	57.36%	> 100 µM	< 0.38 10-6 cm/s	0.63 10-6 cm/s	< 98.97%	111.16%	60.9%	114.21%	66.32%	84.6 µM	56.8 µM	0.5 µM	Caco-2 Efflux Ratio (Caco-2 cells; Caco-2): > 1.68; Efflux Transporter Substrate (Caco-2 cells; Caco-2): Poor or no; Plasma stability % Remaining, Human [6]: 35.0%; Plasma stability % Remaining, Monkey [8]: 22.0%
CC(=O)OCC1=C(C(=O)O)N2C(=O)[C@@H](NC(=O)CSc3ccncc3)[C@H]2SC1 [TBBL-0000063]	Low	> 100 µM		> 100 µM		1.9 µM	13.1 µM	87.31%	27.14%	> 100 µM	< 0.41 10-6 cm/s	< 0.37 10-6 cm/s	< 87.73%	< 102.87%		102.47%	62%	> 100 µM	> 100 µM	0.8 µM	% bound to plasma, CD-1 Mouse (plasma proteins [11]): 14.7%; % bound to plasma, Beagle Dog (plasma proteins [12]): 27.8%; % bound to plasma, Human (plasma proteins [13]): 38.7%; % bound to plasma, SD Rat (plasma proteins [14]): 42.4%; % bound to plasma, Cynomolgus Monkey (plasma proteins [15]): 0.0%
NCCSC=CC1=C(C(=O)O)N2C(=O)C(NC(=O)CSc3ccc(Cl)c(Cl)c3)C2SC1 (centres unmarked) [TBBL-0000306]		> 100 µM	16.6%	> 100 µM	33.8%	0.3 µM	14.4 µM	110.19%	92.52%	> 100 µM					23.0%	102.19%	98.38%	> 100 µM	> 100 µM	> 100 µM	Plasma stability % Remaining, Human [6]: 9.5%; Plasma stability % Remaining, Monkey [8]: 2.0%
